# Measurements reported in patent US20080008674A1, “Use of C-glycoside derivative for improving the skin's barrier function” (L'OREAL, priority 2006, published 2008).
# Marks after values point to notes of the source that are not given here.
# System: reconstructed epidermis (Episkin J13)
# Experiment: Penetration of radiolabelled caffeine through reconstructed human epidermis (barrier function)
# Format: cell-based
# Settings: for passage of [14C]-caffeine, percentage of passage relative to an untreated control: 5 days treatment
# Procedure: The efficacy of the barrier function of a skin may be evaluated by measuring the passage through it of a labelled molecule, for instance radiolabelled caffeine.
# Skin with an improved barrier function is thus characterized in that it slows down, or even reduces, the passage of the said molecule through its epidermis.
# Two batches of reconstructed epidermis (Episkin J13) (batches 1 and 2) are treated for 5 days with the product C-β-D-xylopyranoside-n-propan-2-one, which is applied in the culture medium at a final concentration of 0.2% and 0.04% by weight/volume.
# Vitamin C is used as reference molecule at a concentration of 200 μg/ml, in systemic treatment.
# After 5 days of culturing, 100 μl and 2 UCi/ml, i.e. 0.04 mM of [^14C]-caffeine (radiolabelled caffeine) and 0.35 mM of cold caffeine (non-radiolabelled caffeine) are applied to the surface, and kinetics of uptake into the medium are determined at eight different times.
# The results are expressed as a percentage of passage relative to an untreated control.
smiles,measurement,setting,value
CC(=O)C[C@@H]1OC[C@@H](O)[C@H](O)[C@H]1O [C-β-D-xylopyranoside-n-propan-2-one],"passage of [14C]-caffeine, percentage of passage relative to an untreated control","Batch 1 of reconstructed epidermis, 0.04% AM, sample taken at 1 h 30",52%
same,"passage of [14C]-caffeine, percentage of passage relative to an untreated control","Batch 1 of reconstructed epidermis, 0.04% AM, sample taken at 3 h",66%
same,"passage of [14C]-caffeine, percentage of passage relative to an untreated control","Batch 1 of reconstructed epidermis, 0.04% AM, sample taken at 4 h",64 * %
same,"passage of [14C]-caffeine, percentage of passage relative to an untreated control","Batch 1 of reconstructed epidermis, 0.04% AM, sample taken at 5 h",73 * %
same,"passage of [14C]-caffeine, percentage of passage relative to an untreated control","Batch 1 of reconstructed epidermis, 0.04% AM, sample taken at 6 h",70 * %
same,"passage of [14C]-caffeine, percentage of passage relative to an untreated control","Batch 1 of reconstructed epidermis, 0.04% AM, sample taken at 7 h",69 * %
same,"passage of [14C]-caffeine, percentage of passage relative to an untreated control","Batch 1 of reconstructed epidermis, 0.04% AM, sample taken at 9 h",77 * %
same,"passage of [14C]-caffeine, percentage of passage relative to an untreated control","Batch 1 of reconstructed epidermis, 0.04% AM, sample taken at 24 h",75 * %
same,"passage of [14C]-caffeine, percentage of passage relative to an untreated control","Batch 1 of reconstructed epidermis, 0.2% AM, sample taken at 1 h 30",66%
same,"passage of [14C]-caffeine, percentage of passage relative to an untreated control","Batch 1 of reconstructed epidermis, 0.2% AM, sample taken at 3 h",94%
same,"passage of [14C]-caffeine, percentage of passage relative to an untreated control","Batch 1 of reconstructed epidermis, 0.2% AM, sample taken at 4 h",59 * %
same,"passage of [14C]-caffeine, percentage of passage relative to an untreated control","Batch 1 of reconstructed epidermis, 0.2% AM, sample taken at 5 h",63 * %
same,"passage of [14C]-caffeine, percentage of passage relative to an untreated control","Batch 1 of reconstructed epidermis, 0.2% AM, sample taken at 6 h",63 * %
same,"passage of [14C]-caffeine, percentage of passage relative to an untreated control","Batch 1 of reconstructed epidermis, 0.2% AM, sample taken at 7 h",66 * %
same,"passage of [14C]-caffeine, percentage of passage relative to an untreated control","Batch 1 of reconstructed epidermis, 0.2% AM, sample taken at 9 h",79 * %
same,"passage of [14C]-caffeine, percentage of passage relative to an untreated control","Batch 1 of reconstructed epidermis, 0.2% AM, sample taken at 24 h",70 * %
same,"passage of [14C]-caffeine, percentage of passage relative to an untreated control","Batch 2 of reconstructed epidermis, 0.04% AM, sample taken at 1 h",143%
same,"passage of [14C]-caffeine, percentage of passage relative to an untreated control","Batch 2 of reconstructed epidermis, 0.04% AM, sample taken at 2 h",65 * %
same,"passage of [14C]-caffeine, percentage of passage relative to an untreated control","Batch 2 of reconstructed epidermis, 0.04% AM, sample taken at 3 h",92%
same,"passage of [14C]-caffeine, percentage of passage relative to an untreated control","Batch 2 of reconstructed epidermis, 0.04% AM, sample taken at 4 h",78 * %
same,"passage of [14C]-caffeine, percentage of passage relative to an untreated control","Batch 2 of reconstructed epidermis, 0.04% AM, sample taken at 5 h",84%
same,"passage of [14C]-caffeine, percentage of passage relative to an untreated control","Batch 2 of reconstructed epidermis, 0.04% AM, sample taken at 6 h",80 * %
same,"passage of [14C]-caffeine, percentage of passage relative to an untreated control","Batch 2 of reconstructed epidermis, 0.04% AM, sample taken at 7 h",91%
same,"passage of [14C]-caffeine, percentage of passage relative to an untreated control","Batch 2 of reconstructed epidermis, 0.04% AM, sample taken at 8 h",88 * %
same,"passage of [14C]-caffeine, percentage of passage relative to an untreated control","Batch 2 of reconstructed epidermis, 0.04% AM, sample taken at 9 h",93%
same,"passage of [14C]-caffeine, percentage of passage relative to an untreated control","Batch 2 of reconstructed epidermis, 0.04% AM, sample taken at 10 h",85 * %
same,"passage of [14C]-caffeine, percentage of passage relative to an untreated control","Batch 2 of reconstructed epidermis, 0.04% AM, sample taken at 24 h",99%
same,"passage of [14C]-caffeine, percentage of passage relative to an untreated control","Batch 2 of reconstructed epidermis, 0.2% AM, sample taken at 1 h",162%
same,"passage of [14C]-caffeine, percentage of passage relative to an untreated control","Batch 2 of reconstructed epidermis, 0.2% AM, sample taken at 2 h",61 * %
same,"passage of [14C]-caffeine, percentage of passage relative to an untreated control","Batch 2 of reconstructed epidermis, 0.2% AM, sample taken at 3 h",82%
same,"passage of [14C]-caffeine, percentage of passage relative to an untreated control","Batch 2 of reconstructed epidermis, 0.2% AM, sample taken at 4 h",67 * %
same,"passage of [14C]-caffeine, percentage of passage relative to an untreated control","Batch 2 of reconstructed epidermis, 0.2% AM, sample taken at 5 h",75 * %
same,"passage of [14C]-caffeine, percentage of passage relative to an untreated control","Batch 2 of reconstructed epidermis, 0.2% AM, sample taken at 6 h",75 * %
same,"passage of [14C]-caffeine, percentage of passage relative to an untreated control","Batch 2 of reconstructed epidermis, 0.2% AM, sample taken at 7 h",84 * %
same,"passage of [14C]-caffeine, percentage of passage relative to an untreated control","Batch 2 of reconstructed epidermis, 0.2% AM, sample taken at 8 h",80 * %
same,"passage of [14C]-caffeine, percentage of passage relative to an untreated control","Batch 2 of reconstructed epidermis, 0.2% AM, sample taken at 9 h",88%
same,"passage of [14C]-caffeine, percentage of passage relative to an untreated control","Batch 2 of reconstructed epidermis, 0.2% AM, sample taken at 10 h",80 * %
same,"passage of [14C]-caffeine, percentage of passage relative to an untreated control","Batch 2 of reconstructed epidermis, 0.2% AM, sample taken at 24 h",95%
same,slowing down of caffeine passage compared with vitamin C (reference molecule),"result in words, comparison with vitamin C 200 μg/ml",greater
same,effect on the passage of the radiolabelled caffeine through the reconstructed epidermides (barrier function),"result in words, two batches of reconstructed epidermis",slows down the passage of the radiolabelled caffeine
"O=C1O[C@H]([C@@H](O)CO)C(O)=C1O [Vitamin C, reference compound]","passage of [14C]-caffeine, percentage of passage relative to an untreated control","Batch 1 of reconstructed epidermis, 200 μg/ml, sample taken at 1 h 30",81%
same,"passage of [14C]-caffeine, percentage of passage relative to an untreated control","Batch 1 of reconstructed epidermis, 200 μg/ml, sample taken at 3 h",95%
same,"passage of [14C]-caffeine, percentage of passage relative to an untreated control","Batch 1 of reconstructed epidermis, 200 μg/ml, sample taken at 4 h",81%
same,"passage of [14C]-caffeine, percentage of passage relative to an untreated control","Batch 1 of reconstructed epidermis, 200 μg/ml, sample taken at 5 h",80 * %
same,"passage of [14C]-caffeine, percentage of passage relative to an untreated control","Batch 1 of reconstructed epidermis, 200 μg/ml, sample taken at 6 h",86%
same,"passage of [14C]-caffeine, percentage of passage relative to an untreated control","Batch 1 of reconstructed epidermis, 200 μg/ml, sample taken at 7 h",75 * %
same,"passage of [14C]-caffeine, percentage of passage relative to an untreated control","Batch 1 of reconstructed epidermis, 200 μg/ml, sample taken at 9 h",85%
same,"passage of [14C]-caffeine, percentage of passage relative to an untreated control","Batch 1 of reconstructed epidermis, 200 μg/ml, sample taken at 24 h",85%
same,"passage of [14C]-caffeine, percentage of passage relative to an untreated control","Batch 2 of reconstructed epidermis, 200 μg/ml, sample taken at 1 h",117%
same,"passage of [14C]-caffeine, percentage of passage relative to an untreated control","Batch 2 of reconstructed epidermis, 200 μg/ml, sample taken at 2 h",77 * %
same,"passage of [14C]-caffeine, percentage of passage relative to an untreated control","Batch 2 of reconstructed epidermis, 200 μg/ml, sample taken at 3 h",84%
same,"passage of [14C]-caffeine, percentage of passage relative to an untreated control","Batch 2 of reconstructed epidermis, 200 μg/ml, sample taken at 4 h",86 * %
same,"passage of [14C]-caffeine, percentage of passage relative to an untreated control","Batch 2 of reconstructed epidermis, 200 μg/ml, sample taken at 5 h",71 * %
same,"passage of [14C]-caffeine, percentage of passage relative to an untreated control","Batch 2 of reconstructed epidermis, 200 μg/ml, sample taken at 6 h",94%
same,"passage of [14C]-caffeine, percentage of passage relative to an untreated control","Batch 2 of reconstructed epidermis, 200 μg/ml, sample taken at 7 h",95%
same,"passage of [14C]-caffeine, percentage of passage relative to an untreated control","Batch 2 of reconstructed epidermis, 200 μg/ml, sample taken at 8 h",96%
same,"passage of [14C]-caffeine, percentage of passage relative to an untreated control","Batch 2 of reconstructed epidermis, 200 μg/ml, sample taken at 9 h",85%
same,"passage of [14C]-caffeine, percentage of passage relative to an untreated control","Batch 2 of reconstructed epidermis, 200 μg/ml, sample taken at 10 h",95%
same,"passage of [14C]-caffeine, percentage of passage relative to an untreated control","Batch 2 of reconstructed epidermis, 200 μg/ml, sample taken at 24 h",99%
